Experimental data as given in ChEMBL document CHEMBL1275504, “Detection of macrolide resistance in Mycoplasma pneumoniae by real-time PCR and high-resolution melt analysis” (2008).
In brackets after ≈: the same amount, converted by molar mass.

Experiments:
Type in all cases: functional
[1] = test system: Mycoplasmoides pneumoniae; assay: Antimicrobial activity against Mycoplasma pneumoniae isolate M129 by agar dilution method
[2] = test system: Mycoplasmoides pneumoniae; assay: Antimicrobial activity against Mycoplasma pneumoniae isolate FH by agar dilution method
[3] = test system: Mycoplasmoides pneumoniae; assay: Antimicrobial activity against macrolide-resistant Mycoplasma pneumoniae isolate 6 with A2604G mutation by agar dilution method
[4] = test system: Mycoplasmoides pneumoniae; assay: Antimicrobial activity against macrolide-resistant Mycoplasma pneumoniae isolate 11 with A2604G mutation by agar dilution method
[5] = test system: Mycoplasmoides pneumoniae; assay: Antimicrobial activity against macrolide-resistant Mycoplasma pneumoniae isolate 2p with A2604G mutation by agar dilution method
[6] = test system: Mycoplasmoides pneumoniae; assay: Antimicrobial activity against Mycoplasma pneumoniae isolate 18 by agar dilution method
[7] = test system: Mycoplasmoides pneumoniae; assay: Antimicrobial activity against Mycoplasma pneumoniae isolate 19 by agar dilution method
[8] = test system: Mycoplasmoides pneumoniae; assay: Antimicrobial activity against macrolide-resistant Mycoplasma pneumoniae isolate 685 with A2603G mutation by agar dilution method
[9] = test system: Mycoplasmoides pneumoniae; assay: Antimicrobial activity against macrolide-resistant Mycoplasma pneumoniae isolate 1006 with A2603G mutation by agar dilution method

Compound	MIC [1] [µg/mL]	MIC [2] [µg/mL]	MIC [3] [µg/mL]	MIC [4] [µg/mL]	MIC [5] [µg/mL]	MIC [6] [µg/mL]	MIC [7] [µg/mL]	MIC [8] [µg/mL]	MIC [9] [µg/mL]
CC[C@H]1OC(=O)[C@H](C)[C@@H](O[C@H]2C[C@@](C)(OC)[C@@H](O)[C@H](C)O2)[C@H](C)[C@@H](O[C@@H]2O[C@H](C)C[C@H](N(C)C)[C@H]2O)[C@](C)(O)C[C@@H](C)C(=O)[C@H](C)[C@@H](O)[C@]1(C)O [ERYTHROMYCIN]	0.063 (≈ 0.0858 µM)	0.063 (≈ 0.0858 µM)	128 (≈ 174 µM)	128 (≈ 174 µM)	128 (≈ 174 µM)	0.063 (≈ 0.0858 µM)	0.063 (≈ 0.0858 µM)	128 (≈ 174 µM)	128 (≈ 174 µM)
CN(C)c1ccc(O)c2c1C[C@H]1C[C@H]3[C@H](N(C)C)C(O)=C(C(N)=O)C(=O)[C@@]3(O)C(O)=C1C2=O [MINOCYCLINE]	0.25 (≈ 0.546 µM)	0.25 (≈ 0.546 µM)	0.125 (≈ 0.273 µM)	0.125 (≈ 0.273 µM)	0.25 (≈ 0.546 µM)	0.125 (≈ 0.273 µM)	0.125 (≈ 0.273 µM)	0.125 (≈ 0.273 µM)	0.125 (≈ 0.273 µM)
CN(C)[C@@H]1C(O)=C(C(N)=O)C(=O)[C@@]2(O)C(O)=C3C(=O)c4c(O)cccc4[C@@](C)(O)[C@H]3C[C@@H]12 [TETRACYCLINE]	0.25 (≈ 0.563 µM)	0.25 (≈ 0.563 µM)	0.25 (≈ 0.563 µM)	0.25 (≈ 0.563 µM)	0.25 (≈ 0.563 µM)	0.125 (≈ 0.281 µM)	0.25 (≈ 0.563 µM)	0.25 (≈ 0.563 µM)	0.125 (≈ 0.281 µM)
